Test results reported in ChEMBL document CHEMBL5727708, “Spiro-condensed pyrrolidine derivatives as deubiquitylating enzymes (DUB) inhibitors” (2020).

Biological target: T1, OTU domain-containing protein 7B (Homo sapiens, UniProt Q6GQQ9)
T1 sequence (Q6GQQ9 whole entry): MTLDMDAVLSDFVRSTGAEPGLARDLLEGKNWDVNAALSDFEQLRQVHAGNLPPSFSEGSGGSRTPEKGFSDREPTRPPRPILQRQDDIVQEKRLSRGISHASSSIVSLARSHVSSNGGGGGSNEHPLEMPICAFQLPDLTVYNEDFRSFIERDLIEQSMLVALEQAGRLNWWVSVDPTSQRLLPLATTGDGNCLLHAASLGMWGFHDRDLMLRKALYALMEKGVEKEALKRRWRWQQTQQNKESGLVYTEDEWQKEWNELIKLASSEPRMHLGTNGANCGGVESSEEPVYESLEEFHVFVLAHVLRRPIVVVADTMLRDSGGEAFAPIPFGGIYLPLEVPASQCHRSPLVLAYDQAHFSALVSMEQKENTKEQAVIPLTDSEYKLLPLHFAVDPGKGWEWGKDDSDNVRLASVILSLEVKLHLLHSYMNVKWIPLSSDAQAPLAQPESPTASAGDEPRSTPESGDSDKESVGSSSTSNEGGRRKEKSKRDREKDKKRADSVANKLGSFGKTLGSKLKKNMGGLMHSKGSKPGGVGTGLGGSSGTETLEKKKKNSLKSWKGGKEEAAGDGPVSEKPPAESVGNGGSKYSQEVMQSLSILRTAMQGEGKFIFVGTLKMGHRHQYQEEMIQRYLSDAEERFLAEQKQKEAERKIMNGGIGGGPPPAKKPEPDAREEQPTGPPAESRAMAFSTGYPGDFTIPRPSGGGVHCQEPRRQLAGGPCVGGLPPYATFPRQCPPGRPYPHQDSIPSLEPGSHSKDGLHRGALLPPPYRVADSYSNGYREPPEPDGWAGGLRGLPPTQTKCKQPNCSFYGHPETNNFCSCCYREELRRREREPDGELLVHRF
Experiment: Biochemical Assay: Dilution plates were prepared at 21 times the final concentration (2100 μM for a final concentration of 100 μM) in 50% DMSO in a 96-well polypropylene V-bottom plate (Greiner #651201). A typical 8-point dilution series to be 100, 30, 10, 3, 1, 0.3, 0.1, 0.03 μM final. Reactions were performed in duplicate in black 384 well plates (small volume, Greiner 784076) in a final reaction volume of 21 μl. Either 1 μl of 50% DMSO or diluted compound was added to the plate. Cezanne 1 was diluted in reaction buffer (40 mM Tris, pH 7.5, 0.005% Tween 20, 0.5 mg/ml BSA, 5 mM-beta-mercaptoethanol) to the equivalent of 0.005 μl/well and 10 μl of diluted Cezanne 1 was added to the compound. Enzyme and compound were incubated for 30 min at room temp. Reactions were initiated by the addition of 50 nM of TAMRA labelled peptide linked to ubiquitin via an iso-peptide bond as fluorescence polarisation substrate. Reactions were read immediately after addition of substrate and following a 2 hr incubation at room temperature. Readings were performed on a Pherastar Plus. λ Excitation 540 nm; λ Emission 590 nm.

Cc1ccc2[nH]ncc2c1-c1cnc2c(c1)NC(=O)C1(CCN(C#N)C1)N2 (stereo unspecified)
IC50: < 100 nM
